The values below come from patent publication US20260297083A1, “SUBSTITUTED ACETYLENE COMPOUND DERIVATIVES AND THEIR PHARMACEUTICAL USE” (AVELOS THERAPEUTICS INC., priority 2023, published 2026).

The assay has as its target T1, Polθ polymerase domain (amino acids 1792-2590) (Homo sapiens, UniProt O75417).
T1 construct: 10×Histidine-SUMO (N, cleaved yes); made in house; host or cells: E. coli
T1 sequence (O75417 1792-2590): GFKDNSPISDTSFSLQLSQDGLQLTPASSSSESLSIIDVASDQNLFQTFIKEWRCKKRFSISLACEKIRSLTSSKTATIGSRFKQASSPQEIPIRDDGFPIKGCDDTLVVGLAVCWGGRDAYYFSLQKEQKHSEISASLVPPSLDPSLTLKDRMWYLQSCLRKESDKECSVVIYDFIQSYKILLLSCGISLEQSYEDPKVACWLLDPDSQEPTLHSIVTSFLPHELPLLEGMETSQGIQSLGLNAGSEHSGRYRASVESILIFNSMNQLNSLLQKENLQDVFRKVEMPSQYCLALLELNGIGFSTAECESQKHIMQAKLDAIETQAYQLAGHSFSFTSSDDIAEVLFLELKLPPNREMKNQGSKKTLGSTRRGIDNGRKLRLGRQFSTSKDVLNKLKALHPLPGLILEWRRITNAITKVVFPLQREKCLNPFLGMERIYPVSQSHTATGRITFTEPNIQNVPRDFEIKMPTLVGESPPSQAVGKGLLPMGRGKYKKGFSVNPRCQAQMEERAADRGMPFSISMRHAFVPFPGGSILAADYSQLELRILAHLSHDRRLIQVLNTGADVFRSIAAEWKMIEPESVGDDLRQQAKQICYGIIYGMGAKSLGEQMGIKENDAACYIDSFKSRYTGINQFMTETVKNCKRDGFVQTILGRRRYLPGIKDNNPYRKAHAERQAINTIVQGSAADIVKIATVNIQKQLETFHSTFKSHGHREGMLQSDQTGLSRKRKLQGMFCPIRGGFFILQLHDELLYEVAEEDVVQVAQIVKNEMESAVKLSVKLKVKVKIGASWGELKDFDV
Put plainly: Picogreen assay of Polθ polymerase activity. In kind it is biochemical. Particulars: 12-point concentration response, 90 minutes incubation at room temperature, 8 nM Polθ in 2×polymerase mixture, read-out: PolQ IC50. The source says: The DNA sequence of the polQ gene (Genebank ID #NM 199420.4) was chemically synthesized. The DNA sequence encoding the polymerase domain (amino acids 1792-2590) was subcloned into an E. coli expression plasmid, resulting in the fusion of 10×Histidine-SUMO tag at the N terminus of the polymerase domain.
The protein was expressed in E. coli. and purified using a 2-step IMAC (immobilized metal chelate affinity chromatography) procedure. Briefly stated, the overexpressed E. coli lysate was subjected to Ni-NTA purification, and an N-terminal tag was digested by a SUMO protease. Then, the excised fragment of 10×Histidine-SUMO tag was removed using Ni-NTA beads. The resulting protein was used for the Picogreen assay, as described below.
The methods of DNA complex preparation were slightly modified from the protocol previously reported (Zatreanu et al., 2021, Nature Communications, 12:3636). Briefly stated, polθ substrate was prepared by mixing Oligo1 (5′-GCG GCT GTC ATA AG-3′) and Oligo2 (5′-GCTACATTGACAATGGCATCAAATCTCAGATTGCGTCTTATGACAGCCGCG-3′) in an annealing buffer (20 mM Tris-Cl, pH 7.5, 50 mM NaCl) to the final concentration of 22 uM and 20 uM, respectively. The Polθ product was prepared by mixing Oligo3 (5′-CGCGGCTGTCATAAGACGCAATCTGAGATTTGATGCCATTGTCAATGTAGC-3′) and Oligo2 (5′-GCTACATTGACAATGGCATCAAATCTCAGATTGCGTCTTATGACAGCCGCG-3′) to the final concentration of 20 uM. The polθ product was used for the top signal control in the Picogreen assay. Both substrate and product were heated to 95° C. […] and cooled slowly to room temperature.
To evaluate the ability of test compounds to inhibit the activity of polθ in vitro, a Picogreen assay was performed to measure polθ IC50 (nM).
The reactions were performed at room temperature in an assay buffer (25 mM Tris-HCl, pH 7.5, 12.5 mM NaCl, 0.5 mM MgCl2, 5% (v/v) glycerol, 0.01% (v/v) Triton X-100, 0.01% (w/v) Bovine serum albumin, 1 mM DTT). Thirty microliters of 2×polymerase mixture (8 nM Polθ enzyme in an assay buffer) were distributed to 96 well plates, test compounds were prepared by dilution in 100% DMSO to obtain the correct dose range for a 12-point concentration response and 1 μl was dispensed into each well, and then 30 microliters of 2×substrate mix (100 nM DNA and 40 uM dNTPs in an assay buffer) was added. After 90 minutes of incubation, the reaction was stopped and DNA was stained by adding 40 microliters of Picogreen solution (1:80 dilution of Picogreen, Invitrogen, Cat #P7581, 25 mM Tris-HCl, pH 7.5, 10 mM EDTA, pH 7.5).
The fluorescence intensity was measured at excitation/emission=485 nm/520 nm using an Ensight plate reader (Perkin Elmer). The data was analyzed by GraphPad Prism software (Version 8.4.3) to calculate IC50.
For the compound `C=C(F)C(=O)Nc1cncc(C#CCN(C(=O)[C@@H]2CCS(=O)(=O)N2c2cc(C(F)(F)F)cc(C)n2)c2ccc(F)c(C)c2)c1` [compound 130], the IC50 was 1 to 50 nM.

As for `Cc1cc(C(F)(F)F)cc(N2[C@H](C(=O)N(CC#Cc3ccc(C(N)=O)cc3)c3ccc(F)c(C)c3)CCS2(=O)=O)n1` [compound 105], the IC50 fell in the range of 1 to 50 nM. Take `Cc1cc(C(F)(F)F)cc(N2[C@H](C(=O)N(CC#Cc3ncc(N4CCOCC4)cn3)c3ccc(F)c(C)c3)CCS2(=O)=O)n1` [compound 79]: the IC50 lay in the range of 1 to 50 nM. The same measure for `Cc1cc(C(F)(F)F)cc(N2[C@H](C(=O)N(CC#Cc3ccc(Cc4cnc5ccc(=O)[nH]c5c4)nc3)c3ccc(F)c(C)c3)CCS2(=O)=O)n1` [compound 134]: 1 to 50 nM; for `Cc1cc(C(F)(F)F)cc(N2C(=O)CC[C@H]2C(=O)N(CC#Cc2cccc(=O)[nH]2)c2ccc(F)c(C)c2)n1` [compound 7]: 1 to 50 nM. As for `Cc1cc(C(F)(F)F)cc(N2[C@H](C(=O)N(CC#Cc3cnc(C(N)=O)nc3)c3ccc(F)c(C)c3)CCS2(=O)=O)n1` [compound 78], the IC50 was in the range of 1 to 50 nM. In the case of `Cc1cc(C(F)(F)F)cc(N2[C@H](C(=O)N(CC#Cc3ccc(=O)[nH]n3)c3ccc(F)c(C)c3)CCS2(=O)=O)n1` [compound 26], the concentration for half-maximal inhibition (IC50) is 1 to 50 nM. Next, `C=CC(=O)Nc1ccc(C#CCN(C(=O)[C@@H]2CCS(=O)(=O)N2c2cc(C(F)(F)F)cc(C)n2)c2ccc(F)c(C)c2)cn1` [compound 141, (S)-N-(3-(6-acrylamidopyridin-3-yl)prop-2-yn-1-yl)-N-(4-fluoro-3-methylphenyl)-2-(6-methyl-4-(trifluoromethyl)pyridin-2-yl)isothiazolidine-3-carboxamide 1,1-dioxide]: 1 to 50 nM. The same measure for `Cc1cc(C(F)(F)F)cc(N2C(=O)CC[C@H]2C(=O)N(CC#Cc2ccc(N)nn2)c2ccc(F)c(C)c2F)n1` [compound 2]: 1 to 50 nM; for `Cc1cc(C(F)(F)F)cc(N2[C@H](C(=O)N(CC#Cc3cnc(N4C[C@H](C)N[C@@H](C)C4)cn3)c3ccc(F)c(C)c3)CCS2(=O)=O)n1` [compound 52]: 1 to 50 nM; for `Cc1cc(C(F)(F)F)cc(N2[C@H](C(=O)N(CC#Cc3cnc(-c4c[nH]nn4)cn3)c3ccc(F)c(C)c3)CCS2(=O)=O)n1` [compound 56]: 1 to 50 nM.

With `Cc1cc(C(F)(F)F)cc(N2[C@H](C(=O)N(CC#Cc3cncc(C(=O)N4CCOCC4)n3)c3ccc(F)c(C)c3)CCS2(=O)=O)n1` [compound 70], the concentration for half-maximal inhibition (IC50) lay in the range of 1 to 50 nM. Take `Cc1cc(C(F)(F)F)cc(N2[C@H](C(=O)N(CC#Cc3cc(C)c(F)c(C)n3)c3ccc(F)c(C)c3)CCS2(=O)=O)n1` [compound 90]: the 50% inhibitory concentration (IC50) lay in the range of 51 to 100 nM. The same measure for `Cc1cc(C(F)(F)F)cc(N2[C@H](C(=O)N(CC#Cc3cnc(N4CCOCC4)c(C(F)(F)F)n3)c3ccc(F)c(C)c3)CCS2(=O)=O)n1` [compound 46]: 1 to 50 nM; for `COc1ccc(C#CCN(C(=O)[C@@H]2CCS(=O)(=O)N2c2cc(C(F)(F)F)cc(C)n2)c2ccc(F)c(C)c2)nn1` [compound 27]: 1 to 50 nM; for `Cc1cc(C(F)(F)F)cc(N2[C@H](C(=O)N(CC#Cc3cncc(C(=O)N4CCNCC4)n3)c3ccc(F)c(C)c3)CCS2(=O)=O)n1` [compound 72]: 1 to 50 nM. Next, `Cc1cc(C(F)(F)F)cc(N2C(=O)CC[C@H]2C(=O)N(CC#Cc2ccc(N)nn2)c2ccc(F)c(Cl)c2F)n1` [compound 4]: 1 to 50 nM; `Cc1cc(C(F)(F)F)cc(N2[C@H](C(=O)N(CC#Cc3ccc(N)nn3)c3ccc(F)c(C)c3)CCS2(=O)=O)n1` [compound 18]: 1 to 50 nM; `Cc1cc(C(F)(F)F)cc(N2C(=O)CC[C@H]2C(=O)N(CC#Cc2ccc(N)nn2)c2ccc(F)c(C)c2)n1` [compound 5]: 1 to 50 nM. For the compound `CCN1CCN(c2cnc(C#CCN(C(=O)[C@@H]3CCC(=O)N3c3cc(C(F)(F)F)cc(C)n3)c3ccc(F)c(C)c3)cn2)CC1` [compound 11], the IC50 fell in the range of 1 to 50 nM.

Turning to `Cc1cc(C(F)(F)F)cc(N2[C@H](C(=O)N(CC#Cc3cnc4c(c3)CN(C)C4=O)c3ccc(F)c(C)c3)CCS2(=O)=O)n1` [compound 98], the IC50 fell in the range of 1 to 50 nM. The same measure for `Cc1cc(C(F)(F)F)cc(N2[C@H](C(=O)N(CC#Cc3cnc(C(=O)O)cn3)c3ccc(F)c(C)c3)CCS2(=O)=O)n1` [compound 60]: 1 to 50 nM.

Consider `Cc1ccc(F)c(N(CC#Cc2cnc(N3CCOCC3)cn2)C(=O)[C@H]2CCS(=O)(=O)N2c2cc(C(F)(F)F)cc(C)n2)c1` [compound 41], for which the 50% inhibitory concentration (IC50) was greater than 101 nM. The same measure for `Cc1cc(C(F)(F)F)cc(N2[C@H](C(=O)N(CC#Cc3ccc(Cc4ccc(C(N)=O)nn4)nc3)c3ccc(F)c(C)c3)CCS2(=O)=O)n1` [compound 131]: 1 to 50 nM.

Consider `C=CC(=O)Nc1ccncc1C#CCN(C(=O)[C@@H]1CCS(=O)(=O)N1c1cc(C(F)(F)F)cc(C)n1)c1ccc(F)c(C)c1` [compound 143, (S)-N-(3-(4-acrylamidopyridin-3-yl)prop-2-yn-1-yl)-N-(4-fluoro-3-methylphenyl)-2-(6-methyl-4-(trifluoromethyl)pyridin-2-yl)isothiazolidine-3-carboxamide 1,1-dioxide], for which the IC50 lay within 51 to 100 nM. `Cc1cc(C(F)(F)F)cc(N2[C@H](C(=O)N(CC#Cc3ccc(N)nn3)c3ccc(F)c(C)c3)CN(C)S2(=O)=O)n1` [compound 109]: the IC50 lay within 1 to 50 nM. The same measure for `C=CC(=O)Nc1ccc(C#CCN(C(=O)[C@@H]2CCS(=O)(=O)N2c2cc(C(F)(F)F)cc(C)n2)c2ccc(F)c(C)c2)nc1` [compound 140, (S)-N-(3-(5-acrylamidopyridin-2-yl)prop-2-yn-1-yl)-N-(4-fluoro-3-methylphenyl)-2-(6-methyl-4-(trifluoromethyl)pyridin-2-yl)isothiazolidine-3-carboxamide 1,1-dioxide]: 1 to 50 nM. Regarding `C=CC(=O)Nc1cncc(C#CCN(C(=O)[C@@H]2CCS(=O)(=O)N2c2cc(C(F)(F)F)cc(C)n2)c2ccc(F)c(C)c2)c1` [compound 127], the IC50 is 1 to 50 nM. For `Cc1cc(C(F)(F)F)cc(N2[C@H](C(=O)N(CC#Cc3cncc(C(=O)N4C[C@H](C)N[C@@H](C)C4)n3)c3ccc(F)c(C)c3)CCS2(=O)=O)n1` [compound 74], the IC50 was greater than 101 nM. Next, `Cc1cc(C(F)(F)F)cc(N2C(=O)CC[C@H]2C(=O)N(CC#Cc2ccc(N)nn2)c2ccc(F)c(Cl)c2)n1` [compound 3]: 1 to 50 nM.

With `CCN1CCN(c2ccc(C#CCN(C(=O)[C@@H]3CCS(=O)(=O)N3c3cc(C(F)(F)F)cc(C)n3)c3ccc(F)c(C)c3)nn2)CC1` [compound 24], the half-maximal inhibitory concentration (IC50) was 1 to 50 nM. Turning to `Cc1cc(C(F)(F)F)cc(N2[C@H](C(=O)N(CC#Cc3ccc(C(N)=O)nc3C)c3ccc(F)c(C)c3)CCS2(=O)=O)n1` [compound 117], the half-inhibitory concentration (IC50) was 1 to 50 nM.

What is called IC50 is the concentration at which inhibition is half-maximal.
